What was measured:
[1] = system: bone resorption (antebrachial bones, radius and ulna, of a fetus); experiment: tissue or blood; assay type: cell-based, Sprague-Dawley rat; details: for ^45 Ca released into medium: 2 days, mean ± S.D. (n = 5)
Method: Effect of N-(1,3-dihydroxy-2-propyl)valiolamine and 1,25(OH)2 vitamin D3 on bone resorption
The bone resorption rate was determined by the method of Raisz (J. Clin. Invest. 44, 103-116, 1965). Thus, one Sprague-Dawley rat on day 18 of gestation was subcutaneously dosed with 50 μCi of ^45 Ca (an isotope of calcium, in CaCl2) and laparotomy was performed on the next day. The fetuses were aseptically taken out and under a dissecting microscope, the bilateral antebrachial bones (radius and ulna) of a fetus were cut off from the trunk. The connective tissues and cartilages were removed as much as possible to prepare a sample for bone culture. Each piece of bone was cultured in 0.6 ml of BGJb medium (Fitton-Jackson modification, GIBCO Laboratories, U.S.A., supplemented with 2 mg/ml of bovine serum albumin) at 37° C. for 24 hours and after addition of AO-128 at a final concentration of 10 μg/ml or 1,25(OH)2 vitamin D3 at a concentration of 0.8 pg/ml, was further incubated in the same medium for 2 days. The ^45 Ca radioactivity in the medium and that in the bone were respectively counted and the rate (%) of ^45 Ca release from the bone into the medium was calculated by means of the following equation. [formula]
The bones from another fetus of the same litter were incubated without addition of the test compounds for 2 days as controls. The means±S.D. of values found from 5 pieces of bone in each group was calculated and the percentage (%) of the mean value relative to the mean value of the control group was calculated.

[2] = Acute oral toxicity in mice; details: mouse, in vivo, mice (NRMI)
[3] = Exogenous calcium absorption promoting effect in rats (oral sucrose + calcium carbonate load, 24 hr urinary calcium); assay type: in vivo, male rats (Jcl: SD); details: for Urinary calcium: sucrose 2.5 g/kg, calcium carbonate 400 mg/kg, 24 hr urine, mean ± S.D.
Method: Exogenous calcium absorption promoting effect of N-(1,3-dihydroxy-2-propyl)valiolamine in rats
Eight-week-old male rats (Jcl: SD) fasted for 20 hours were orally dosed with 72.5% sucrose aqueous solution [2.5 g (sucrose)/kg (body weight)], 5% calcium carbonate aqueous suspension [400 mg (CaCO3)/kg (body weight)] and 0.015, 0.05 or 0.15% aqueous AO-128 solution [0.3, 1.0 or 3.0 mg ((AO-128)/kg (body weight)] and the 24 hr urine was collected for the determination of urinary calcium. The animals were deprived of food during urine collection but had free access to water. The results are shown in Table 2.

[4] = Acute oral toxicity in rats; details: rat, in vivo, rats (Wistar)
[5] = Dietary calcium absorption promoting effect in rats (medicated diet; body weight, food consumption, urinary and plasma calcium); assay type: in vivo, male rats (Jcl: SD); details: for Body weight / Plasma calcium / Food consumption / Urinary calcium: mean ± S.D., n=6; for Urinary calcium: ** = 1% level of significance vs control
Text: Dietary calcium absorption promoting effect of N-(1,3-dihydroxy-2-propyl)valiolamine in rats
Five-week-old male rats (Jcl: SD) were divided into 2 groups and one group (control group) was given a regular diet (CE-2. Japan Clea Co.) while the other group was put on a medicated diet, i.e. CE-2 supplemented with N-(1,3-dihydroxy-2-propyl)valiolamine (AO-128). The level of addition of AO-128 was 10 ppm during the first 10 days and 25 ppm during the subsequent 7 days. On days 3, 10 and 17 of feeding, the body weight, food consumption, urinary calcium excretion, and plasma calcium concentration were determined.

[6] = Day 17, 10 ppm first 10 days then 25 ppm 7 days in diet

C=C1/C(=C\C=C2/CCC[C@]3(C)[C@@H]([C@H](C)CCCC(C)(C)O)CC[C@@H]23)C[C@@H](O)C[C@@H]1O [1,25(OH)2 vitamin D3, reference compound]
^45 Ca released into medium ([1]; 0.8 pg/ml, control 12.3 ± 2.2, *p < 0.001): 26.6 ± 2.2%
fold induction at 800 fg/mL ([1]; Rattus norvegicus, 48 h, read-out: increase in the release of ^45 Ca into the medium): 2.2

OCC(CO)N[C@H]1C[C@](O)(CO)[C@@H](O)[C@H](O)[C@H]1O [AO-128, N-(1,3-dihydroxy-2-propyl)valiolamine]
LD50 [2]: 14700 to 21500 mg/kg
Urinary calcium ([3]; AO-128 0.3 mg/kg oral, n=7): 311 ± 214 µg/day
Urinary calcium ([3]; AO-128 1.0 mg/kg oral, n=6, * = 2% level of significance vs control): 441 ± 172 µg/day
Urinary calcium ([3]; AO-128 3.0 mg/kg oral, n=6, ** = 1% level of significance vs control): 517 ± 195 µg/day
absorption of calcium (in words) ([3]; administered concurrently with a carbohydrate and calcium, based on the two experiments): increases the absorption of calcium
urinary calcium (in words) ([3]; concurrent with calcium carbonate and sucrose): dose-dependent increase
effect on bone resorption (in words) ([1]; 10 μg/ml): no change
^45 Ca released into medium ([1]; 10 μg/ml, control 12.7 ± 3.2): 12.6 ± 2.5%
LD50 [4]: ~20000 mg/kg
body weight gain (in words) ([5]; AO-128 group, diet 10 then 25 ppm): a tendency of suppressed body weight gain
Body weight ([5]; Day 3, 10 ppm in diet): 143 ± 7 g
Plasma calcium ([5]; Day 3, 10 ppm in diet): 10.8 ± 0.5 mg/dL
Food consumption ([5]; Day 3, 10 ppm in diet, * = 5% level of significance vs control): 12.7 ± 1.7 g/day
Urinary calcium ([5]; Day 3, 10 ppm in diet): 1.99 ± 0.67 mg/day
Body weight ([5]; Day 10, 10 ppm in diet): 176 ± 8 g
Food consumption ([5]; Day 10, 10 ppm in diet): 22.7 ± 2.3 g/day
Plasma calcium ([5]; Day 10, 10 ppm in diet): 10.3 ± 0.5 mg/dL
Urinary calcium ([5]; Day 10, 10 ppm in diet): 2.10 ± 0.54 mg/day
Body weight [5, 6]: 250 ± 14 g
Food consumption [5, 6]: 24.5 ± 2.0 g/day
Plasma calcium [5, 6]: 9.9 ± 0.3 mg/dL
urinary calcium excretion (in words) ([5]; all determination days): increases
food consumption (in words) ([5]; day 3): slight decrease on day 3
food consumption (in words) ([5]; day 10): recovery on day 10
food consumption (in words) ([5]; day 17): a tendency of increase in day 17
plasma calcium concentration (in words) ([5]; days 3, 10 and 17): no significant change

Source: US5036081A, “Calcium absorption promoter” (Takeda Chemical Industries, Ltd., priority 1988, dated 1991)
